Test in all cases: DTP human tumour cell line panel, 48 h
Test [1] concerns M14 melanoma.
Test [2] relates to UACC-257 melanoma.
For test [3], the system named is LOX IMVI melanoma.
In test [4] the test system is SF-295 CNS.
The subject of test [5] is DU-145 prostate.
Test [6] deals with MOLT-4 leukemia.
Test [7] deals with SNB-19 CNS.
For test [8], the system named is HCT-15 colon.
In test [9] the test system is ACHN renal.
The subject of test [10] is NCI-H23 lung.

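Assay format: 96-well plates, 48-hour exposure. TGI: concentration producing complete growth inhibition.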

Consider 5 molecules from PubChem BioAssay (NCI).

The term TGI denotes the concentration at which net growth stops. Low readings indicate greater sensitivity of the cells, high ones lower sensitivity of the cells. `COc1ccc(OC)c2sc(N3C(=O)/C(=C/c4cccc([N+](=O)[O-])c4)N=C3c3ccccc3)nc12`: the TGI in [1] is greater than 100 µM; in test [2] it was greater than 100 µM; in [3], 62.1 µM; in [4] it was greater than 100 µM; in test [5], greater than 100 µM; in [6] it was 47.4 µM. The TGI in [7], in [8], in [9] and in test [10] was greater than 100 µM in each case.
As to `C(=C\c1ccccc1)/COc1ccccc1C(N1CCOCC1)n1nc2ccccc2n1` (stereo not given), the TGI stood at 13.5 µM in test [1]; 25.5 µM in test [2]; 13.5 µM in test [3]; 28.7 µM in test [4]; 63.3 µM in test [5]; 13.2 µM in [6]. Also, the total growth inhibition concentration (TGI) is greater than 63.1 µM in test [7], 11.7 µM in [8], 38.8 µM in [9] and 24.6 µM in test [10].
For `Nc1ccc(-c2nn3c(COc4ccc(Cl)cc4)nnc3s2)cc1`, the total growth inhibition concentration (TGI) in test [1], in [2], in test [3], in [4], in [5] and in test [6] was greater than 100 µM in each case. Also, the concentration for total growth inhibition (TGI) in test [7], in test [8], in test [9] and in test [10] was greater than 100 µM in each case.
As for `O=C1CS(=O)(=O)C(c2cccc(Oc3ccccc3)c2)N1c1cc(Cl)ccc1Cl` (stereo not given), the total growth inhibition concentration (TGI) in test [1] was 43.1 µM; in test [2], 55.9 µM; in test [3] it was 28.2 µM; in test [4], 62.1 µM; in test [5], 43.3 µM; in test [6], greater than 100 µM. Further, the TGI was 57 µM in [7], 69.9 µM in [8], 43.1 µM in [9] and greater than 100 µM in test [10].
Consider `O=[N+]([O-])c1ccc2c(c1)c(N=NC(=S)Nc1ccc(Cl)cc1)c(O)n2CN1CCOCC1`, for which the TGI in test [1] came out at 21.7 µM; in test [2] it was 26.5 µM; in [3] it was 23.8 µM; in test [4] it was 18.3 µM; in test [5], 22.2 µM; in test [6], 2.97 µM. For the same molecule, the concentration for total growth inhibition (TGI) in [7] is 20.8 µM; in [8], 11.4 µM; in [9], 16.4 µM; in test [10] it was 9.44 µM.
